Measured values: patent publication US9932350B2, “Inhibitors of IRAK4 activity” (MERCK SHARP & DOHME CORP., priority 2014, dated 2018)

Target: GST tagged IRAK4 (Homo sapiens (Human), UniProt Q9NWZ3)
Assay: IRAK4 Kinase Assay (IMAP fluorescence polarization)
Assay type: biochemical
Conditions: 0.5 nM GST tagged IRAK4, 100 μM ATP, 30 minutes at 25° C.
Procedure, shortened: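 GST-tagged IRAK4 (0.5 nM) phosphorylates 100 nM fluorescent peptide with 100 μM ATP in 10 mM Tris pH 7.2, 1 mM MgCl2, 1 mM DTT, 0.01% Tween 20 for 30 min at 25 °C. Phosphorylation read as IMAP nanoparticle-binding fluorescence polarization after stop reagent.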

Sequence of GST tagged IRAK4 (Q9NWZ3 whole entry): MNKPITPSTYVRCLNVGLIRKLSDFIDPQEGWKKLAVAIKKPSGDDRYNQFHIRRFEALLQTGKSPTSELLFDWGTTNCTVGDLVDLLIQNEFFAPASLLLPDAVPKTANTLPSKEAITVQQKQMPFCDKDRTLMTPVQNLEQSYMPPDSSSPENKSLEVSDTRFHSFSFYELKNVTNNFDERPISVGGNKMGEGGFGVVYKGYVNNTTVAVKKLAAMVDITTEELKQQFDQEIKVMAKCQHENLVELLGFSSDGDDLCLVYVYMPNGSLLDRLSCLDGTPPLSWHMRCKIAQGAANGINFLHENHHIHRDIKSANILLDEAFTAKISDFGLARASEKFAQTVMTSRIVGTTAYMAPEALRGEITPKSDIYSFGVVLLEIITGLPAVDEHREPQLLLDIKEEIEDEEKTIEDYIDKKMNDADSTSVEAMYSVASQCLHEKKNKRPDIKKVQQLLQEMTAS

- IC50: 10 nM
SMILES: CC1CC(N2CCC(F)CC2)CCC1Nc1ncnc2ccc(C#N)cc12 (single isomer, unassigned) [Example 8-2, 4-{[(1S,2S,4S or 1R,2R,4R)-4-(4-fluoropiperidin-1-yl)-2-methylcyclohexyl]amino} quinazoline-6-carbonitrile]
